# Measured values: ChEMBL document CHEMBL3832761, “MMV Pathogen Box Bioactivity Data” (2017)
# Assays:
# Cryptosporidium parvum [1] = test: AntiCryptosporidium parvum activity Compounds added at t0, IC 50 (uM); type: functional, organism-based
# Onchocerca gutturosa [2] = test: AntiOnchocerca activity O. gutturosa adult males: Motility reduction at 12.5 uM (%); type: functional; design: scale not given: the % may be the effect or the level left
# Onchocerca gutturosa [3] = test: AntiOnchocerca activity O. gutturosa adult males: MTT reduction at 12.5 uM (%); type: functional; design: scale not given: the % may be the effect or the level left
# Brugia pahangi = test: AntiBrugia pahangi activity Average inhibition motility at 10 uM (%); type: functional
# Onchocerca ochengi [4] = test: AntiOnchocerca activity O. ochengi adult females: final mean inhibition motility at 10 uM on Day 7 (%); type: functional
# [5] = HL60 CC50 (uM) Cytotoxicity; type: functional; details: HL-60
# HepG2 = test: Cytotoxicity data HepG2 CC20 (uM); type: functional
# Onchocerca volvulus = test: AntiOnchocerca activity O. volvulus L3 Molting assay: inhibition at 10 uM (%); type: functional
# Onchocerca ochengi [6] = test: AntiOnchocerca activity O. ochengi adult males: final mean inhibition motility at 10 uM on Day 5 (%); type: functional
# Onchocerca lienalis = test: AntiOnchocerca activity O. lienalis microfilariae Motility reduction (%); type: functional; design: concentration or dose not given beside the values
# Cryptosporidium parvum [7] = test: AntiCryptosporidium parvum activity Compounds added 3h after t0, IC 50 (uM); type: functional, organism-based
# Toxoplasma gondii [8] = test: AntiToxoplasma gondii activity data 2-day killing assay: inhibition at 10 uM (%) Experiment D; type: functional
# Toxoplasma gondii [9] = test: AntiToxoplasma gondii activity data 2-day killing assay: IC50 (uM), Experiment F; type: functional, organism-based; details: Toxoplasma gondii, 48 h; read-out: IC50
# Toxoplasma gondii [10] = test: AntiToxoplasma gondii activity data Inhibition of plaque forming efficiency (%) Experiment A; type: functional; design: concentration or dose not given beside the values
# Toxoplasma gondii [11] = test: AntiToxoplasma gondii activity data 2-day killing assay: inhibition at 10 uM (%) Experiment E; type: functional
# Toxoplasma gondii [12] = test: AntiToxoplasma gondii activity data 2-day killing assay: inhibition at 10 uM (%) Experiment C; type: functional; details: 48 h
# Schistosoma mansoni [13] = test: AntiSchistosoma mansoni activity Adults IC50 (uM); type: functional, organism-based
# Schistosoma mansoni [14] = test: AntiSchistosoma mansoni activity Newly Transformed Schistosomula: inhibition at 10 uM at 72h (%); type: functional
# Schistosoma mansoni [15] = test: AntiSchistosoma mansoni activity Juveniles IC50 (uM); type: functional, organism-based
# Toxoplasma gondii [16] = test: AntiToxoplasma gondii activity data 2-day killing assay: IC50 (uM), Experiment G; type: functional, organism-based
# Leishmania donovani [17] = test: AntiLeishmania activity L. donovani (axenic) IC50 (uM); type: functional, organism-based
# Trypanosoma brucei [18] = test: AntiTrypanosoma brucei activity T. b. rhodesiense IC50 (uM); type: functional, organism-based
# L6 = test: L6 CC50 (uM) Cytotoxicity; type: functional; details: Rattus norvegicus
# Trypanosoma brucei [19] = test: AntiTrypanosoma brucei activity T. b. brucei IC50 (uM); type: functional, organism-based
# MRC5 = test: MRC5 CC50 (uM) Cytotoxicity; type: functional; details: Homo sapiens
# Leishmania infantum = test: AntiLeishmania activity L. infantum (macrophages) IC50 (uM); type: functional, organism-based
# [20] = PMM CC50 (uM) Cytotoxicity; type: functional; details: Macrophage
# Leishmania donovani [21] = test: AntiLeishmania activity L. donovani (macrophages) IC50 (uM); type: functional, organism-based
# Trypanosoma cruzi = test: AntiTrypanosoma cruzi activity IC50 (uM); type: functional, organism-based
# Leishmania = test: AntiLeishmania activity Toxicity on infected PMM (uM); type: functional
structure (smiles),measurement,setting,value
CCOc1ccc2cc(-c3nn(C(C)(C)C)c(N)c3C(N)=O)cnc2c1,IC50,Cryptosporidium parvum [1],0.05 µM
COc1ccc(N(CCc2cccc(C)n2)C(C)=O)cc1,Activity,Onchocerca gutturosa [2],35.7%
same,Activity,Onchocerca gutturosa [3],29.6%
same,Inhibition,Brugia pahangi,6%
same,Inhibition,Onchocerca ochengi [4],0%
same,CC50,[5],> 50 µM
same,CC20,HepG2,>80 µM
same,Inhibition,Onchocerca volvulus,88%
same,Inhibition,Onchocerca ochengi [6],6%
same,Activity,Onchocerca lienalis,13.3%
CS(=O)(=O)N1CCC(Cn2nc(Cc3cccc4ccccc34)c3c(N)ncnc32)CC1,CC50,[5],47.3 µM
same,CC20,HepG2,53 µM
same,IC50,Cryptosporidium parvum [1],0.1 µM
same,IC50,Cryptosporidium parvum [7],> 10 µM
COC(=O)c1c(NC(=O)c2cc3ccccc3oc2=O)sc2c1CCN(Cc1ccccc1)C2,Activity,Onchocerca gutturosa [2],21.4%
same,Activity,Onchocerca gutturosa [3],0%
same,Inhibition,Brugia pahangi,10%
same,Inhibition,Onchocerca ochengi [4],8%
same,CC50,[5],> 50 µM
same,CC20,HepG2,12.3 µM
same,Inhibition,Onchocerca volvulus,100%
same,Inhibition,Onchocerca ochengi [6],0%
same,Activity,Onchocerca lienalis,33.3%
CC(C)(C)c1ccc(N[C@@H]2CCCC[C@H]2NC(=O)c2ccco2)cc1,Activity,Onchocerca gutturosa [2],50%
same,Activity,Onchocerca gutturosa [3],37.7%
same,Inhibition,Brugia pahangi,3%
same,Inhibition,Onchocerca ochengi [4],0%
same,CC50,[5],> 50 µM
same,CC20,HepG2,35.9 µM
same,Inhibition,Onchocerca volvulus,80%
same,Inhibition,Onchocerca ochengi [6],1%
same,Activity,Onchocerca lienalis,13.3%
CCOc1ccc2cc(-c3nn(CC4CCN(C)CC4)c4ncnc(N)c34)ccc2c1,IC50,Cryptosporidium parvum [1],0.05 µM
Nc1ncc(-c2ccc(C(F)(F)F)nc2)cc1-c1ccc(C(F)(F)F)nc1,CC20,HepG2,>80 µM
same,Activity,Onchocerca lienalis,93%
CN1CCC(c2cc(-c3ccncc3)c(-c3ccc(F)cc3)[nH]2)CC1,Inhibition,Toxoplasma gondii [8],100%
same,IC50,Toxoplasma gondii [9],1.21 µM
same,CC50,[5],> 50 µM
same,Inhibition,Toxoplasma gondii [10],100%
same,Inhibition,Toxoplasma gondii [11],97.9%
same,inhibition at 10 µM,Toxoplasma gondii [12],99.3%
CC(C)(C)n1nc(-c2ccccc2)c2c(N)ncnc21,Inhibition,Toxoplasma gondii [8],100%
same,IC50,Toxoplasma gondii [9],1.1 µM
same,CC50,[5],> 25 µM
same,Inhibition,Toxoplasma gondii [10],100%
same,Inhibition,Toxoplasma gondii [11],97.5%
same,inhibition at 10 µM,Toxoplasma gondii [12],96.5%
Clc1ccc(-n2cc(COc3ccnc4ccccc34)nn2)cc1,CC50,[5],> 50 µM
same,CC20,HepG2,13.6 µM
same,IC50,Cryptosporidium parvum [1],> 5 µM
same,IC50,Cryptosporidium parvum [7],1.51 µM
O=C(OCc1ccccc1)N1CCC(c2cc(-c3ccncc3)c(-c3ccc(F)cc3)[nH]2)CC1,Inhibition,Toxoplasma gondii [8],76.8%
same,IC50,Toxoplasma gondii [9],0.87 µM
same,CC50,[5],> 50 µM
same,Inhibition,Toxoplasma gondii [10],~75%
same,Inhibition,Toxoplasma gondii [11],99.1%
same,inhibition at 10 µM,Toxoplasma gondii [12],77%
Cc1cc(OCC(=O)Nc2ccc(C(C)C)cc2)n(C)c(=O)c1C#N,IC50,Schistosoma mansoni [13],7.2 µM
same,CC20,HepG2,>80 µM
same,Inhibition,Schistosoma mansoni [14],13.3%
same,IC50,Schistosoma mansoni [15],3.88 µM
Nc1ncnc2[nH]nc(Cc3cccc4ccccc34)c12,Inhibition,Toxoplasma gondii [8],89.2%
same,IC50,Toxoplasma gondii [9],2.31 µM
same,CC50,[5],> 25 µM
same,Inhibition,Toxoplasma gondii [10],100%
same,IC50,"Toxoplasma gondii [16]; Toxoplasma gondii, 48 h, read-out: IC50",3.05 µM
same,Inhibition,Toxoplasma gondii [11],63.3%
same,inhibition at 10 µM,Toxoplasma gondii [12],54.7%
CC(C)C(Oc1cccc2ccccc12)C(=O)O (stereo unspecified),CC50,[5],> 50 µM
same,CC20,HepG2,>80 µM
same,IC50,Cryptosporidium parvum [1],> 10 µM
same,IC50,Cryptosporidium parvum [7],> 10 µM
COc1ccc(OC)c(NCc2ccc3nc(N)nc(N)c3c2Cl)c1,CC50,[5],> 25 µM
same,CC20,HepG2,3.44 µM
same,IC50,Cryptosporidium parvum [1],0.1 µM
same,IC50,Cryptosporidium parvum [7],3.98 µM
Cc1cc(NC(=O)c2ccc(Oc3ccc(Cl)cc3O)o2)no1,Inhibition,Toxoplasma gondii [8],64.8%
same,IC50,Toxoplasma gondii [9],7.32 µM
same,CC50,[5],> 50 µM
same,Inhibition,Toxoplasma gondii [10],~85%
same,IC50,Toxoplasma gondii [16],no inhibition
same,Inhibition,Toxoplasma gondii [11],22%
same,inhibition at 10 µM,Toxoplasma gondii [12],70%
CC(C)(C)n1nc(Cc2cccc3ccccc23)c2c(N)ncnc21,CC50,[5],24.1 µM
same,CC20,HepG2,19 µM
same,IC50,Cryptosporidium parvum [1],0.1 µM
same,IC50,Cryptosporidium parvum [7],> 10 µM
COc1ccc(-c2nn(C(C)C)c3ncnc(N)c23)cc1OC,CC50,[5],25.1 µM
same,CC20,HepG2,1.63 µM
same,IC50,Cryptosporidium parvum [1],0.5 µM
same,IC50,Cryptosporidium parvum [7],13.9 µM
O=C(Nc1ccccc1-c1nc2c(C(=O)O)cccc2o1)c1ccccc1,IC50,Leishmania donovani [17],0.4 µM
same,IC50,Trypanosoma brucei [18],> 32 µM
same,CC50,L6,45.4 µM
same,IC50,Trypanosoma brucei [19],> 32 µM
same,CC50,MRC5,> 32 µM
same,CC20,HepG2,>80 µM
same,IC50,Leishmania infantum,> 32 µM
same,CC50,[20],> 32 µM
same,IC50,Leishmania donovani [21],> 30 µM
same,IC50,Trypanosoma cruzi,> 32 µM
same,Toxicity on infected macrophages,Leishmania,>30 µM
COc1cc(NC(=O)Cc2nn(C)c(=O)c3ccccc23)ccc1Cl,CC50,[5],> 50 µM
same,CC20,HepG2,>80 µM
same,IC50,Cryptosporidium parvum [1],< 0.1 µM
same,IC50,Cryptosporidium parvum [7],0.68 µM
Cc1nc(-c2ccccn2)nc(N(C)CCc2ccccc2)c1Cl,IC50,Leishmania donovani [17],0.02 µM
same,IC50,Trypanosoma brucei [18],11.8 µM
same,CC50,L6,9.6 µM
same,IC50,Trypanosoma brucei [19],14.9 µM
same,CC50,MRC5,21.7 µM
same,CC20,HepG2,11.3 µM
same,IC50,Leishmania infantum,4.06 µM
same,CC50,[20],4 µM
same,IC50,Leishmania donovani [21],2.6 µM
same,IC50,Trypanosoma cruzi,0.88 µM
same,Toxicity on infected macrophages,Leishmania,16.7 µM
c1ccc(Oc2ccc(-c3cc(CN4CCOCC4)[nH]n3)cc2)cc1,IC50,Leishmania donovani [17],9.7 µM
same,IC50,Trypanosoma brucei [18],5.26 µM
same,CC50,L6,22.9 µM
same,IC50,Trypanosoma brucei [19],15.1 µM
same,CC50,MRC5,> 32 µM
same,CC20,HepG2,28.9 µM
same,IC50,Leishmania infantum,> 32 µM
same,CC50,[20],> 32 µM
same,IC50,Leishmania donovani [21],26.1 µM
same,IC50,Trypanosoma cruzi,16 µM
same,Toxicity on infected macrophages,Leishmania,30 µM
Nc1ncnc2c1c(Cc1cccc3ccccc13)nn2CC1CCNCC1,CC50,[5],> 50 µM
same,CC20,HepG2,>80 µM
same,IC50,Cryptosporidium parvum [1],0.5 µM
same,IC50,Cryptosporidium parvum [7],25.9 µM
O=C(c1ccc(F)cc1)N(CCNc1ccccc1)c1ccccc1,Activity,Onchocerca gutturosa [2],28.6%
same,Activity,Onchocerca gutturosa [3],0%
same,Inhibition,Brugia pahangi,17%
same,Inhibition,Onchocerca ochengi [4],0%
same,CC50,[5],> 50 µM
same,CC20,HepG2,18.5 µM
same,Inhibition,Onchocerca volvulus,89%
same,Inhibition,Onchocerca ochengi [6],0%
same,Activity,Onchocerca lienalis,13.3%
CC(C)n1nc(-c2cc3c(Cl)cccc3[nH]2)c2c(N)ncnc21,Inhibition,Toxoplasma gondii [8],100%
same,IC50,Toxoplasma gondii [9],0.16 µM
same,CC50,[5],> 25 µM
same,Inhibition,Toxoplasma gondii [10],100%
same,Inhibition,Toxoplasma gondii [11],99.5%
same,inhibition at 10 µM,Toxoplasma gondii [12],99.6%
CC(C)(C)n1nc(Cc2ccc(F)c(Cl)c2)c2c(N)ncnc21,Inhibition,Toxoplasma gondii [8],100%
same,IC50,Toxoplasma gondii [9],1.7 µM
same,CC50,[5],> 25 µM
same,Inhibition,Toxoplasma gondii [10],100%
same,Inhibition,Toxoplasma gondii [11],95.5%
same,inhibition at 10 µM,Toxoplasma gondii [12],98.3%
Nc1nc(N)c2c3c(sc2n1)CN(Cc1ccccc1)CC3,Inhibition,Toxoplasma gondii [8],83.2%
same,IC50,Toxoplasma gondii [9],7.06 µM
same,CC50,[5],> 50 µM
same,Inhibition,Toxoplasma gondii [10],100%
same,IC50,Toxoplasma gondii [16],no inhibition
same,Inhibition,Toxoplasma gondii [11],81.6%
same,inhibition at 10 µM,Toxoplasma gondii [12],54.2%
c1ccc(Oc2ccc(-c3cc(N4CCOCC4)[nH]n3)cc2)cc1,IC50,Leishmania donovani [17],3.87 µM
same,IC50,Trypanosoma brucei [18],1.29 µM
same,CC50,L6,10 µM
same,IC50,Trypanosoma brucei [19],3.45 µM
same,CC50,MRC5,> 32 µM
same,CC20,HepG2,7.47 µM
same,IC50,Leishmania infantum,21.5 µM
same,CC50,[20],> 32 µM
same,IC50,Leishmania donovani [21],> 30 µM
same,IC50,Trypanosoma cruzi,16 µM
same,Toxicity on infected macrophages,Leishmania,>30 µM
